According to patent US20240352046A1, “ECTONUCLEOTIDE PYROPHOSPHATASE-PHOSPHODIESTERASE-1 (ENPP1) INHIBITORS AND USES THEREOF” (1cBio, Inc., priority 2020, published 2024):

Molecular target: ENPP-1 (Ectonucleotide Pyrophosphatase/Phosphodiesterase 1) (Homo sapiens (Human), UniProt P22413)
Assay: ENPP1 inhibition assay (AMP Glo, cGAMP substrate)
Type: biochemical
Conditions: cGAMP 20 μM substrate, ENPP1 1 nM
Procedure: IC50 values of compounds against ENPP-1 (Ectonucleotide Pyrophosphatase/Phosphodiesterase 1) were determined at Integral BioSciences (India) using AMP Glo (Promega, Cat #V5011). Assay was performed in a 30 μL final volume in a white 96-well Half Area plate (Costar,Cat #3693). Dose response curve for the compounds were prepared in duplicates with starting conc. at 5 μM and a three-fold titration was performed. The reaction buffer consisted of 50 mM Tris (pH 8.0), 0.5 mM CaCl2), 1 μM ZnCl2, 250 mM NaCl and 0.1 mg/ml BSA. To the compound dilution, 15 μL of ENPP1 enzyme (R&D Systems; Cat #6136-EN-010) was added to each well (final conc. 1 nM) and the mix was pre-incubated for 15 min at RT. An equal volume (15 μL) containing cGAMP (Sigma, Cat #SML-1229) (final conc. 20 μM) was added to initiate the enzyme reaction and the reaction was incubated for 30 min at RT. The reaction was then stopped by heating at 90° C. for 3 minutes. 10 μl of reaction was then transferred to 384 well white, medium binding plates (Grenier, Cat #781075) to which 10 μl of AMP-Glo Reagent 1 was added and mixed well and incubated for 1 hour at 25° C. Following 60 min incubation, 20 μL of detection mixture was added to the enzyme reaction bringing the final volume to 40 μL. The reaction was further incubated for 60 min at RT after which the plates were read using BioTek Plate reader.
Analysis was done using the standard curve by non-linear regression, variable slope inhibitor curve fits (Graph-Pad Prism) and IC50's of compounds were determined wherever possible.

Chain of ENPP-1 (Ectonucleotide Pyrophosphatase/Phosphodiesterase 1) (P22413 whole entry): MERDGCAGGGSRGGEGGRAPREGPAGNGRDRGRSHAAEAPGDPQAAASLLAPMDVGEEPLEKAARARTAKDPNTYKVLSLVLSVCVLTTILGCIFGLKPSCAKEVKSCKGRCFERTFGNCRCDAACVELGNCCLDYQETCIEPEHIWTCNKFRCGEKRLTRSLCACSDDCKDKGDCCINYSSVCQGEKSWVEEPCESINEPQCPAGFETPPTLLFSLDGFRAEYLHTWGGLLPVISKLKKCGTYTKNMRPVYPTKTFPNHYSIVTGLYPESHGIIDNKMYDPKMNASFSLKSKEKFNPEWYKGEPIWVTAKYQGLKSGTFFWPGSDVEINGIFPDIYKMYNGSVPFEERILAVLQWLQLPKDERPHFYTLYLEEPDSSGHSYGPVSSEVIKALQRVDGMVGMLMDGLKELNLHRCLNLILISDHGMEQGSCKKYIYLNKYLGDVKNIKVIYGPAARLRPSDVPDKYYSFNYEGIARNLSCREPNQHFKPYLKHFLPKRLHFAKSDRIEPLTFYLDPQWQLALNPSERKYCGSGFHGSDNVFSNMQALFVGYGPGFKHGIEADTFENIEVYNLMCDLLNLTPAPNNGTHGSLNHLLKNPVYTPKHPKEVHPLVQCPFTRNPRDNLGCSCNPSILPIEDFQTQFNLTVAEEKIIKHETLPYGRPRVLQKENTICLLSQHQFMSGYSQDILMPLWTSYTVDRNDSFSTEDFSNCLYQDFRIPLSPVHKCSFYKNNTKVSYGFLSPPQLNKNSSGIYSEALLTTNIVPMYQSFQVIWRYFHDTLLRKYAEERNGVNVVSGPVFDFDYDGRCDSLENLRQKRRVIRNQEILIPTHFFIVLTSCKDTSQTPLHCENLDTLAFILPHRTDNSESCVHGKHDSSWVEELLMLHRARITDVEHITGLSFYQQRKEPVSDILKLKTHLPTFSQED

| SMILES | IC50 [µM] |
| --- | --- |
| COc1cc2ncnc(N3CC(CCC(=O)O)C3)c2cc1OC [Compound 1.5, 3-(1-(6,7-dimethoxyquinazolin-4-yl)azetidin-3-yl)propanoic acid] | 0.16 |
| Cc1cc(Cl)n2ncnc(N3CC4(CC(N(C5CCCC5)S(N)(=O)=O)C4)C3)c12 [Compound 1.110, N-(2-(7-chloro-5-methylpyrrolo[2,1-f][1,2,4]triazin-4-yl)-2-azaspiro[3.3]heptan-6-yl)-N-cyclopentylsulfamamide] | 0.395 |
| Cc1cc(Cl)n2ncnc(N3CC4(CC(NCc5ccc(S(N)(=O)=O)cc5)C4)C3)c12 [Compound 1.132, 4-(((2-(7-chloro-5-methylpyrrolo[2,1-f][1,2,4]triazin-4-yl)-2-azaspiro[3.3]heptan-6-yl)amino)methyl)benzenesulfonamide] | 0.181 |
| Cc1cc(Cl)n2ncnc(N3CC(CN(C)S(N)(=O)=O)C3)c12 [Compound 1.86] | 0.106 |
| COCCN(C1CC2(C1)CN(c1ncnn3c(Cl)cc(C)c13)C2)S(N)(=O)=O [Compound 1.122, N-(2-(7-chloro-5-methylpyrrolo[1,2-f][1,2,4]triazin-4-yl)-2-azaspiro[3.3]heptan-6-yl)-N-(2-methoxyethyl)sulfamamide] | 0.062 |
| COc1ccc2c(N3CC(CCNS(N)(=O)=O)C3)c(C#N)cnc2c1 [Compound 1.13, 4-(3-(2-sulfamoylaminoethyl)azetidine-1-yl)-7-methoxyquinoline-3-carbonitrile] | 0.011 |
| COc1cc2c(N3CC(CCNS(N)(=O)=O)C3)ncnc2cn1 [Compound 1.3, (2-(1-(6-methoxypyrido[3,4-d]pyrimidin-4-yl)azetidin-3-yl)ethyl)aminisulfonamide] | 0.22 |
| CN(C1CC2(C1)CN(c1ncnc3scc(-c4ccccc4)c13)C2)S(N)(=O)=O [Compound 1.100, N-methyl-N-(2-(5-phenylthieno[2,3-d]pyrimidin-4-yl)-2-azaspiro[3.3]heptan-6-yl)sulfamamide] | > 3 |
| COc1cc2nc(-c3ccn(C)n3)nc(N3CC(CCNS(N)(=O)=O)C3)c2cc1OC [Compound 1.36, 6,7-dimethoxy-2-(1-methylpyrazol-3-yl)-4-[3-[2-(sulfamoylamino)ethyl]azetidin-1-yl]quinazoline] | 0.464 |
| Cc1cc(C)n2ncnc(N3CC4(CC(N(C)S(N)(=O)=O)C4)C3)c12 [Compound 1.77, N-(2-(5,7-dimethylpyrrolo[1,2-f][1,2,4]triazin-4-yl)-2-azaspiro[3.3]heptan-6-yl)-N-methylsulfamide] | 0.295 |
| Cc1cc(Cl)n2ncnc(N3CC4(CC(N(C(C)C)S(N)(=O)=O)C4)C3)c12 [Compound 1.82, N-(2-(7-chloro-5-methylpyrrolo[2,1-f][1,2,4]triazin-4-yl)-2-azaspiro[3.3]heptan-6-yl)-N-isopropylsulfamamide] | 1.89 |
| Cc1cc(Cl)n2ncnc(N3CC(CCN(C)S(N)(=O)=O)C3)c12 [Compound 1.84, N-(2-(1-(7-chloro-5-methylpyrrolo[1,2-f][1,2,4]triazin-4-yl)azetidin-3-yl)ethyl)-N-methylsulfamide] | > 2.25 |
| COc1cc2ncnc(N3CC4(CC(CB(O)O)C4)C3)c2cc1OC [Compound 1.53, (2-(6,7-dimethoxyquinazolin-4-yl)-2-azaspiro[3.3]heptan-6-yl)methylboronic acid] | 0.122 |
| COc1cc2ncnc(N3CC(CCNS(N)(=O)=O)C3)c2cc1C [Compound 1.54, N-(2-[1-(7-methoxy-6-methylquinazolin-4-yl)azetidin-3-yl]ethyl)sulfuric diamide] | 1.68 |
| Cc1cc(Cl)n2ncnc(N3CC4(CC(N(Cc5ccc(C(F)(F)F)cc5)S(N)(=O)=O)C4)C3)c12 [Compound 1.109, N-(2-(7-chloro-5-methylpyrrolo[2,1-f][1,2,4]triazin-4-yl)-2-azaspiro[3.3]heptan-6-yl)-N-(4-(trifluoromethyl)benzyl)sulfamamide] | 0.189 |
| Cc1cc(Cl)n2nc(C(C)C)nc(N3CC4(CC(N(C)S(N)(=O)=O)C4)C3)c12 [Compound 1.101, N-(2-(7-chloro-2-isopropyl-5-methylpyrrolo[1,2-f][1,2,4]triazin-4-yl)-2-azaspiro[3.3]heptan-6-yl)-N-methylsulfamide] | > 3 |
| Cc1cc(Cl)n2ncnc(N3CC4(CC(N(C5CCC5)S(N)(=O)=O)C4)C3)c12 [Compound 1.111, N-(2-(7-chloro-5-methylpyrrolo[2,1-f][1,2,4]triazin-4-yl)-2-azaspiro[3.3]heptan-6-yl)-N-cyclobutylsulfamamide] | 0.398 |
| Cc1cc(Cl)n2nc(C(F)F)nc(N3CC4(CC(N(C)S(N)(=O)=O)C4)C3)c12 [Compound 1.90] | > 3 |

| SMILES | IC50 [µM] |
| --- | --- |
| COc1ccc2c(N3CC(CCNS(N)(=O)=O)C3)nc(-c3ccccc3)nc2c1 [Compound 1.34, 4-(3-(2-sulfamoylaminoethyl)azetidine-1-yl)-7-methoxy-2-phenylquinazoline] | > 3 |
| Cc1cc(Cl)n2ncnc(N3CC4(CC(N(C)Cc5ccc(S(N)(=O)=O)cc5)C4)C3)c12 [Compound 1.133, 4-(((2-(7-chloro-5-methylpyrrolo[2,1-f][1,2,4]triazin-4-yl)-2-azaspiro[3.3]heptan-6-yl)(methyl)amino)methyl)benzenesulfonamide] | 0.27 |
| Cc1cc(Cl)n2ncnc(N3CC4(CC(N(CC5CCC5)S(N)(=O)=O)C4)C3)c12 [Compound 1.116, N-(2-(7-chloro-5-methylpyrrolo[2,1-f][1,2,4]triazin-4-yl)-2-azaspiro[3.3]heptan-6-yl)-N-(cyclobutylmethyl)sulfamide] | 0.069 |
| COc1ccc2c(N3CC(CCNS(N)(=O)=O)C3)ncnc2c1OC [Compound 1.31, 4-(3-(2-sulfamoylaminoethyl)azetidine-1-yl)-7,8-dimethoxyquinazoline] | > 3 |
| Cn1cnc2c(F)c3ncnc(N4CC(CCNS(N)(=O)=O)C4)c3cc21 [Compound 1.32, 8-(3-(2-sulfamoylaminoethyl)azetidine-1-yl)-4-fluoro-1-methyl-1H-imidazo[4,5-g]quinazoline] | > 3 |
| COc1cc2ncnc(N3CC(CCP(=O)(O)O)C3)c2cc1OC [Compound 1.29, 2-(1-(6,7-dimethoxyquinazolin-4-yl)azetidin-3-yl)ethylphosphonic acid] | 0.892 |
| CCCN(C1CC2(C1)CN(c1nc(C)nn3c(Cl)cc(C)c13)C2)S(N)(=O)=O [Compound 1.103, N-(2-(7-chloro-2,5-dimethylpyrrolo[1,2-f][1,2,4]triazin-4-yl)-2-azaspiro[3.3]heptan-6-yl)-N-propylsulfatamide] | 0.59 |
| COc1ccc2c(N3CC(CCNS(N)(=O)=O)C3)nc(-c3cccnc3)nc2c1 [Compound 1.44, 4-(3-(2-sulfamoylaminoethyl)azetidine-1-yl)-7-methoxy-2-(pyridin-3-yl)quinazoline] | > 3 |
| CN(C1CC2(C1)CN(c1nc(N)nc3[nH]cnc13)C2)S(N)(=O)=O [Compound 1.108, N-(2-(2-amino-9H-purin-6-yl)-2-azaspiro[3.3]heptan-6-yl)-N-methylsulfamamide] | > 3 |
| CCCCN(C1CC2(C1)CN(c1ncnn3c(Cl)cc(C)c13)C2)S(N)(=O)=O [Compound 1.114, N-butyl-N-(2-(7-chloro-5-methylpyrrolo[2,1-f][1,2,4]triazin-4-yl)-2-azaspiro[3.3]heptan-6-yl)sulfamamide] | 0.039 |
| Cc1cc(Cl)n2ncnc(N3CC4(CC(N(CCC(F)(F)F)S(N)(=O)=O)C4)C3)c12 [Compound 1.93, N-(2-(7-chloro-5-methylpyrrolo[2,1-f][1,2,4]triazin-4-yl)-2-azaspiro[3.3]heptan-6-yl)-N-(3,3,3-trifluoropropyl)sulfamamide] | 0.019 |
| Cc1cc(Cl)n2ncnc(N3CC4(CC(N(CC5CCCCC5)S(N)(=O)=O)C4)C3)c12 [Compound 1.117, N-(2-(7-chloro-5-methylpyrrolo[2,1-f][1,2,4]triazin-4-yl)-2-azaspiro[3.3]heptan-6-yl)-N-(cyclohexylmethyl)sulfamide] | 0.239 |
| COc1ccc2c(N3CC(CCNS(N)(=O)=O)C3)nc(C34CC5CC(CC(C5)C3)C4)nc2c1 [Compound 1.45, 2-(1-adamantyl)-7-methoxy-4-[3-[2-(sulfamoylamino)ethyl]azetidin-1-yl]quinazoline] | > 3 |
| COc1cc2nccc(N3CC(CCNS(N)(=O)=O)C3)c2cc1OC [Compound 1.11, (2-(1-(6,7-dimethoxyquinolin-4-yl)azetidin-3-yl)ethyl)aminosulfonamide] | 0.09 |
| COc1cccc2c(N3CC(CCNS(N)(=O)=O)C3)ncnc12 [Compound 1.4, (2-(1-(8-methoxyquinazolin-4-yl)azetidin-3-yl)ethyl)aminosulfonamide] | 0.072 |
| Cc1ccn2ncnc(N3CC4(CC(N(C)S(N)(=O)=O)C4)C3)c12 [Compound 1.73] | 0.247 |
| Cc1cc(C#N)n2ncnc(N3CC4(CC(N(C)S(N)(=O)=O)C4)C3)c12 [Compound 1.91, N-(2-(6-cyano-5-methylpyrrolo[1,2-f][1,2,4]triazin-4-yl)-2-azaspiro[3.3]heptan-6-yl)-N-methylsulfamamide] | > 3 |
